Assay results from US20210070747A1, “2(1H)-QUINOLINONE DERIVATIVE” (priority 2017, published 2021).
Values after ≈ are worked out from the molar mass of the structure shown.

Tests used:
E. coli DNA gyrase [1] = target: T1, E. coli DNA gyrase (Escherichia coli, UniProt P0AES6); assay: Test for evaluating the activity of inhibiting E. coli DNA gyrase enzyme (Method 1, supercoiling, Inspiralis enzyme); format: biochemical; details: Method 1; for IC50: read-out: E. Coli Gyrase supercoiling IC50
T1 construct: made in house; host or cells: E. coli BL21 (DE3)
Protocol: Test Example 1-1 Test for Evaluating the Activity of Inhibiting E. coli DNA Gyrase Enzyme (Method 1)
The enzymatic activity of E. coli DNA gyrase was measured by a method comprising reacting DNA gyrase and its substrate, relaxed pBR322 (Inspiralis), in the presence of ATP and detecting the post-reaction supercoiled pBR322/relaxed pBR322 ratio with H19 (Profoldin).
Specifically, to 1 ng/μL of relaxed pBR322, E. coli DNA gyrase enzyme (Inspiralis) was added at a final concentration of 0.006 U/μL and the mixture was incubated for 60 minutes at room temperature. This reaction was carried out in 20 mmol/L tris-HCl buffered solution (pH 8.0) comprising 0.5 mmol/L ATP, 0.005% bridge 35, 35 mmol/L ammonium acetate, 8 mmol/L magnesium chloride, 4.6% glycerol, and 1 mmol/L dithiothreitol. To the reaction mixture, H19 was added to bring the reaction to an end; thereafter, the supercoiled pBR322/relaxed pBR322 ratio was detected at excitation wavelength/emission wavelength=485 nm/535 nm. An inhibition curve was obtained by allowing the analyte compound to be present at varying concentrations during the reaction described above. […] The test results of interest are shown in [Table 20-1] and [Table 20-2].

E. Coli ATCC 25922 = assay: Test for evaluating antibacterial activity (E. coli), broth microdilution MIC; format: cell-based; details: Escherichia coli, ATCC25922; 35° C., 18 hours, cation-adjusted Mueller-Hinton medium
How it was run: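 Broth microdilution per modified CLSI method in cation-adjusted Mueller-Hinton medium. Inoculum from overnight heart infusion agar growth, McFarland 0.5 suspension diluted 10-fold; incubation 35° C for 18 hours. MIC taken as lowest drug concentration with no visible growth.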

E. coli DNA gyrase [2] = target: T1, E. coli DNA gyrase; assay: Test for evaluating the activity of inhibiting E. coli DNA gyrase enzyme (Method 2, supercoiling, recombinant gyrA/gyrB complex); format: biochemical
How it was run: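 Recombinant E. coli gyrA/gyrB complex (His-tagged, BL21(DE3)-expressed, Ni-NTA purified; 0.135 nmol/mL final) supercoiled relaxed pBR322 (1 ng/μL) with 0.5 mmol/L ATP in pH 8.0 Tris buffer, 60 min at room temperature. H19 stopped the reaction; supercoiled/relaxed ratio read at 485/535 nm, inhibition curves built from varying compound concentrations.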

[3] = test system: N. gonorrhoeae ATCC 49226; assay: Test for evaluating antibacterial activity (N. gonorrhoeae), broth microdilution MIC; format: cell-based; details: Neisseria gonorrhoeae, ATCC49226; 35° C., 24 hours, gonococcal broth
Protocol: Minimum inhibitory concentration (MIC) was measured using the broth microdilution method described below in accordance with a modification of the method of Geers et al. (Antimicrob. Agents. Chemother. (1989), 33, 233-234).
After sterilization, BD. Difco supplement C was added to give a final concentration of 1%, whereby a gonococcal broth was prepared.
Bacterial cells under test were cultured overnight on a chocolate II agar medium, scraped off and suspended at a concentration equivalent to McFarland 0.5 turbidity; the suspension thus obtained was diluted 5 folds to give a liquid inoculum. The inoculum (0.005 mL) was inoculated on a gonococcal broth containing the analyte compound and cultured at 35° C. for 24 hours. A minimum drug concentration at which no bacterial growth was macroscopically visible was designated MIC.

[4] = Method 2, read-out: E. Coli Gyrase supercoiling IC50

## CNc1cccc2cc(C(=O)NC3CCN(c4ncc(C(=O)O)s4)C3)c(=O)[nH]c12 (stereo not shown) [Example 9, 2-(3-{[8-(methylamino)-2-oxo-1,2-dihydroquinoline-3-carbonyl]amino}pyrrolidine-1-yl)-1,3-thiazole-5-carboxylic acid]
E. coli DNA gyrase [1]
  IC50: 51.7 nM
E. Coli ATCC 25922
  MIC: > 64 µg/mL

## CNc1cccc2cc(C(=O)NC3CN(c4ncc(C(=O)O)s4)C3)c(=O)[nH]c12 [Example 10, 2-(3-{[8-(methylamino)-2-oxo-1,2-dihydroquinoline-3-carbonyl]amino}azetidine-1-yl)-1,3-thiazole-5-carboxylic acid]
E. coli DNA gyrase [1]
  IC50: 459 nM
E. Coli ATCC 25922
  MIC: > 64 µg/mL

## CNc1cccc2cc(C(=O)Nc3ccccc3)c(=O)[nH]c12 [Example 11, 8-(methylamino)-2-oxo-N-phenyl-1,2-dihydroquinoline-3-carboxamide]
E. coli DNA gyrase [1]
  IC50: 245 nM
E. Coli ATCC 25922
  MIC: > 64 µg/mL

## CNc1cccc2cc(C(=O)Nc3cncnc3)c(=O)[nH]c12 [Example 12, 8-(methylamino)-2-oxo-N-(pyrimidine-5-yl)-1,2-dihydroquinoline-3-carboxamide]
E. coli DNA gyrase [1]
  IC50: 21.1 nM
E. Coli ATCC 25922
  MIC: > 64 µg/mL

## CNc1cccc2cc(C(=O)N[C@@H](Cc3c[nH]cn3)C(=O)O)c(=O)[nH]c12 [Example 13, N-[8-(methylamino)-2-oxo-1,2-dihydroquinoline-3-carbonyl]-L-histidine-trifluoroacetate]
E. coli DNA gyrase [1]
  IC50: 31700 nM

## CNc1cccc2cc(C(=O)NCc3ccccn3)c(=O)[nH]c12 [Example 21, 8-(methylamino)-2-oxo-N-[(pyridine-2-yl)methyl]-1,2-dihydroquinoline-3-carboxamide]
E. coli DNA gyrase [1]; at 3000 nM
  inhibition at 3 µM: 44%

## CNc1cc(F)cc2cc(C(=O)NCCc3ccccc3)c(=O)[nH]c12 [Example 78, 6-fluoro-8-(methylamino)-2-oxo-N-(2-phenylethyl)-1,2-dihydroquinoline-3-carboxamide]
E. coli DNA gyrase [1]; at 300 nM
  inhibition at 0.3 µM: 12%

## CNc1cc(F)cc2cc(C(=O)NCCc3ccccn3)c(=O)[nH]c12 [Example 79, 6-fluoro-8-(methylamino)-2-oxo-N-[2-(pyridine-2-yl)ethyl]-1,2-dihydroquinoline-3-carboxamide]
E. coli DNA gyrase [1]
  IC50: 175 nM

## CNc1cc(F)cc2cc(C(=O)Nc3ccc(-c4nnn[nH]4)cc3)c(=O)[nH]c12 [Example 149, 6-fluoro-8-(methylamino)-2-oxo-N-[4-(1H-tetrazole-5-yl)phenyl]-1,2-dihydroquinoline-3-carboxamide]
E. coli DNA gyrase [2]; [4]
  IC50: 0.55 nM
E. Coli ATCC 25922
  MIC: > 8 µg/mL
[3]
  MIC: 0.03 µg/mL (≈ 0.0791 µM)

## CNc1cc(F)cc2c(O)c(C(=O)Nc3ccc(C(=N)N)cc3)c(=O)[nH]c12 [Example 150, N-(4-Carbamimidoylphenyl)-6-fluoro-4-hydroxy-8-(methylamino)-2-oxo-1,2-dihydroquinoline-3-carboxamide]
E. coli DNA gyrase [2]; [4]
  IC50: 89.3 nM
E. Coli ATCC 25922
  MIC: > 16 µg/mL
[3]
  MIC: 0.03 µg/mL (≈ 0.0812 µM)

## CNc1cc(F)cc2cc(C(=O)Nc3ccc(S(C)(=N)=O)cc3)c(=O)[nH]c12 (stereo not shown) [Example 151, 6-Fluoro-N-[4-(S-methanesulfonimidoyl)phenyl]-8-(methylamino)-2-oxo-1,2-dihydroquinoline-3-carboxamide]
E. coli DNA gyrase [2]
  IC50: 21.4 nM
E. Coli ATCC 25922
  MIC: > 16 µg/mL
[3]
  MIC: 0.5 µg/mL (≈ 1.29 µM)

## CNc1cc(F)cc2c(O)c(C(=O)Nc3ccc(C(=O)OC)cc3CN3CCCCC3)c(=O)[nH]c12 [Example 152, Methyl 4-[[6-fluoro-4-hydroxy-8-(methylamino)-2-oxo-1,2-dihydroquinoline-3-carbonyl]amino]-3-[(piperidin-1-yl)methyl]benzoate]
E. coli DNA gyrase [2]; [4]
  IC50: 1230 nM
E. Coli ATCC 25922
  MIC: > 16 µg/mL
[3]
  MIC: 4 µg/mL (≈ 8.29 µM)

## CNc1cc(F)cc2cc(C(=O)Nc3ccc(NC(=O)NS(C)(=O)=O)cc3)c(=O)[nH]c12 [Example 154, 6-fluoro-N-(4-{[(methanesulfonyl)carbamoyl]amino}phenyl)-8-(methylamino)-2-oxo-1,2-dihydroquinoline-3-carboxamide]
E. coli DNA gyrase [2]; [4]
  IC50: 9.78 nM
E. Coli ATCC 25922
  MIC: > 16 µg/mL
[3]
  MIC: 0.06 µg/mL (≈ 0.134 µM)

## CNc1cc(F)cc2c(O)c(C(=O)Nc3ccc(C(=O)O)cc3CN3CCOCC3)c(=O)[nH]c12 [Example 155, 4-[[6-Fluoro-4-hydroxy-8-(methylamino)-2-oxo-1,2-dihydroquinoline-3-carbonyl]amino]-3-[(morpholin-4-yl)methyl]benzoic Acid]
E. coli DNA gyrase [2]; [4]
  IC50: 109 nM
E. Coli ATCC 25922
  MIC: > 32 µg/mL
[3]
  MIC: 0.015 µg/mL (≈ 0.0319 µM)

## CNc1cc(F)cc2c(O)c(C(=O)Nc3ccc(C(=O)O)cc3CN3CCC3)c(=O)[nH]c12.O=CO [Example 156, 3-[(azetidine-1-yl)methyl]-4-{[6-fluoro-4-hydroxy-8-(methylamino)-2-oxo-1,2-dihydroquinoline-3-carbonyl]amino}benzoic acid-formate]
E. coli DNA gyrase [2]
  IC50: 13.4 nM
E. Coli ATCC 25922
  MIC: 32 µg/mL
[3]
  MIC: 0.5 µg/mL

## CNc1cc(F)cc2c(O)c(C(=O)Nc3ccc(C(=O)O)cc3CN3CCCC3)c(=O)[nH]c12.O=CO [Example 157, 4-{[6-fluoro-4-hydroxy-8-(methylamino)-2-oxo-1,2-dihydroquinoline-3-carbonyl]amino}-3-[(pyrrolidine-1-yl)methyl]benzoic acid-formate]
E. coli DNA gyrase [2]
  IC50: 5.61 nM
E. Coli ATCC 25922
  MIC: 16 µg/mL
[3]
  MIC: 0.12 µg/mL

## CNc1cc(F)cc2cc(C(=O)Nc3ccc(C(O)C(N)=O)cc3)c(=O)[nH]c12 (stereo not shown) [Example 158, N-[4-(2-amino-1-hydroxy-2-oxoethyl)phenyl]-6-fluoro-8-(methylamino)-2-oxo-1,2-dihydroquinoline-3-carboxamide]
E. coli DNA gyrase [2]; [4]
  IC50: 7.78 nM
E. Coli ATCC 25922
  MIC: > 16 µg/mL
[3]
  MIC: 0.03 µg/mL (≈ 0.0781 µM)

## CNc1cc(F)cc2cc(C(=O)Nc3ccc(C4OC(=O)NC4=O)cc3)c(=O)[nH]c12 (stereo not shown) [Example 159, N-[4-(2,4-Dioxo-1,3-oxazolidin-5-yl)phenyl]-6-fluoro-8-(methylamino)-2-oxo-1,2-dihydroquinoline-3-carboxamide]
E. coli DNA gyrase [2]; [4]
  IC50: 1.08 nM
E. Coli ATCC 25922
  MIC: > 16 µg/mL
[3]
  MIC: 0.002 µg/mL (≈ 0.00487 µM)

## O=C(O)c1ccc(NC(=O)c2cc3cccc(O)c3[nH]c2=O)cc1 [Example 160, 4-[(8-Hydroxy-2-oxo-1,2-dihydroquinoline-3-carbonyl)amino]benzoic Acid]
E. coli DNA gyrase [2]; [4]
  IC50: 11700 nM
E. Coli ATCC 25922
  MIC: > 32 µg/mL
[3]
  MIC: > 4 µg/mL

## CCc1cccc2cc(C(=O)Nc3ccc(C(=O)O)cc3)c(=O)[nH]c12 [Example 161, 4-[(8-ethyl-2-oxo-1,2-dihydroquinoline-3-carbonyl)amino]benzoic acid]
E. coli DNA gyrase [2]; [4]
  IC50: 2230 nM
E. Coli ATCC 25922
  MIC: > 32 µg/mL
[3]
  MIC: > 4 µg/mL

## CNc1cc(F)cc2cc(C(=O)Oc3ccc(C(=O)O)cc3)c(=O)[nH]c12 [Example 162, 4-{[6-fluoro-8-(methylamino)-2-oxo-1,2-dihydroquinoline-3-carbonyl]oxy}benzoic acid]
E. coli DNA gyrase [2]; [4]
  IC50: 3450 nM
E. Coli ATCC 25922
  MIC: > 32 µg/mL
[3]
  MIC: > 1 µg/mL

## CNc1cc(F)cc2cc(CNc3ccc(C(=O)O)cc3)c(=O)[nH]c12 [Example 163, 4-([[6-Fluoro-8-(methylamino)-2-oxo-1,2-dihydroquinoline-3-yl]methyl]amino)benzoic Acid]
E. coli DNA gyrase [2]; [4]
  IC50: 2100 nM
E. Coli ATCC 25922
  MIC: > 32 µg/mL
[3]
  MIC: > 1 µg/mL

## CNc1cc(F)cc2c(O)c(C(=O)Nc3ccc(C(=O)NS(=O)(=O)N(C)C)cc3CN3CCCCC3)c(=O)[nH]c12 [Example 164, N-{4-[(dimethyl-sulfamoyl)carbamoyl]-2-[(piperidine-1-yl)methyl]phenyl}-6-fluoro-4-hydroxy-8-(methylamino)-2-oxo-1,2-dihydroquinoline-3-carboxamide]
E. coli DNA gyrase [2]; [4]
  IC50: 4.44 nM
E. Coli ATCC 25922
  MIC: 64 µg/mL (≈ 111 µM)
[3]
  MIC: 0.12 µg/mL (≈ 0.209 µM)

## Nc1cccc2cc(C(=O)Nc3cccc(C(=O)O)c3)c(=O)[nH]c12 [Example 165, 3-[(8-Amino-2-oxo-1,2-dihydroquinoline-3-carbonyl)amino]benzoic acid-trifluoroacetate]
E. coli DNA gyrase [1]; at 50000 nM
  inhibition at 50 µM: 27%

## O=C(O)c1ccc(NC(=O)c2cc3ccccc3[nH]c2=O)cc1 [Reference Example 1, 4-[(2-Oxo-1,2-dihydroquinoline-3-carbonyl)amino]benzoic Acid, reference compound]
E. coli DNA gyrase [2]; [4]
  IC50: 7010 nM
E. Coli ATCC 25922
  MIC: > 64 µg/mL
[3]
  MIC: > 1 µg/mL
